Literature values as cited in patent publication EP2397122A2, “Formulations of neramexane dosage forms” (Merz Pharma GmbH & Co. KGaA, priority 2004, dated 2006).

elimination half-life (T½) (man): 60 to 80 h | absolute bioavailability (oral administration in man): approximately 100%
SMILES: CC12CC3CC(C)(C1)CC(N)(C3)C2 [memantine, 1-amino-3,5-dimethyladamantane]
